Measurements: ChEMBL document CHEMBL1158932, “Cytotoxic pyridone alkaloids from the leaves of Piper aborescens” (1990)
Values after ≈ are worked out from the molar mass of the structure shown.

How the values were obtained:
Assay type in all cases: functional
A549 = assay: Cytotoxicity against human A549 cells after 6 days by MTT assay; conditions: A549, 144 h, read-out: ED50 (the source's name)
HT-29 = assay: Cytotoxicity against human HT-29 cells after 6 days by MTT assay; conditions: HT-29, 144 h, read-out: ED50 (the source's name)
KB = assay: Cytotoxicity against human KB cells after 3 days by MTT assay; conditions: 72 h, read-out: ED50 (the source's name)
P388 = assay: Cytotoxicity against mouse P388 cells after 3 days by MTT assay; conditions: P388, 72 h, read-out: ED50 (the source's name)

Compound | EC50 (A549) | EC50 (HT-29) | EC50 (KB) | EC50 (P388)
COc1cc(C2C(C(=O)N3CCC=CC3=O)[C@H](c3cc(OC)c(OC)c(OC)c3)[C@@H]2C(=O)N2CCC=CC2=O)cc(OC)c1OC (stereo partly specified) [PIPLARTINE DIMER A] | 2.21 µg/mL (≈ 3.48 µM) | 2.49 µg/mL (≈ 3.92 µM) | 3.9 µg/mL (≈ 6.14 µM) | 3.06 µg/mL (≈ 4.82 µM)
COc1cc(CCC(=O)N2CCC=CC2=O)cc2c1OCO2 | 5.76 µg/mL (≈ 19 µM) | 3.8 µg/mL (≈ 12.5 µM) | 4.99 µg/mL (≈ 16.5 µM) | 2.21 µg/mL (≈ 7.29 µM)
COc1cc(/C=C/C(=O)N2CCC=CC2=O)cc2c1OCO2 | 2.57 µg/mL (≈ 8.53 µM) | 2.15 µg/mL (≈ 7.14 µM) | 2.62 µg/mL (≈ 8.7 µM) | 0.43 µg/mL (≈ 1.43 µM)
COc1cc(/C=C/C(=O)N2CCC=CC2=O)cc(OC)c1OC [PIPLARTINE] | 0.6 µg/mL (≈ 1.89 µM) | 0.45 µg/mL (≈ 1.42 µM) | 1.8 µg/mL (≈ 5.67 µM) | 0.9 µg/mL (≈ 2.84 µM)
